Experimental data taken from BigSolDB 2.1.

c1ccc(-c2ccc(C(c3ccccc3)n3ccnc3)cc2)cc1 (stereo unspecified)
Settings	solubility (mole fraction)
in DMF, 283.17 K	0.0149
in DMF, 288.13 K	0.0177
in DMF, 293.15 K	0.0208
in DMF, 298.18 K	0.0245
in DMF, 303.14 K	0.029
in DMF, 308.09 K	0.0341
in DMF, 313.25 K	0.0403
in DMF, 318.13 K	0.0482
in DMF, 323.18 K	0.0565
in acetonitrile, 283.24 K	0.00109
in acetonitrile, 288.17 K	0.0014
in acetonitrile, 293.15 K	0.00176
in acetonitrile, 298.14 K	0.00221
in acetonitrile, 303.08 K	0.00277
in acetonitrile, 308.13 K	0.00347
in acetonitrile, 313.16 K	0.00439
in acetonitrile, 318.14 K	0.00541
in acetonitrile, 323.11 K	0.00682
in ethanol, 283.15 K	0.0028
in ethanol, 288.18 K	0.00342
in ethanol, 293.13 K	0.00407
in ethanol, 298.15 K	0.00512
in ethanol, 303.17 K	0.0064
in ethanol, 308.14 K	0.00782
in ethanol, 313.15 K	0.00965
in ethanol, 318.2 K	0.0122
in ethanol, 323.14 K	0.0151
in ethyl acetate, 283.16 K	0.00238
in ethyl acetate, 288.14 K	0.00305
in ethyl acetate, 293.17 K	0.00385
in ethyl acetate, 298.13 K	0.00471
in ethyl acetate, 303.18 K	0.00579
in ethyl acetate, 308.12 K	0.00724
in ethyl acetate, 313.1 K	0.00892
in ethyl acetate, 318.13 K	0.0113
in ethyl acetate, 323.1 K	0.0139
in isobutanol, 283.14 K	0.00308
in isobutanol, 288.17 K	0.0041
in isobutanol, 293.13 K	0.00528
in isobutanol, 298.12 K	0.00659
in isobutanol, 303.16 K	0.00865
in isobutanol, 308.15 K	0.0114
in isobutanol, 313.19 K	0.0148
in isobutanol, 318.14 K	0.0197
in isobutanol, 323.16 K	0.0256
in isopentanol, 283.13 K	0.00402
in isopentanol, 288.17 K	0.00512
in isopentanol, 293.07 K	0.00652
in isopentanol, 298.14 K	0.00831
in isopentanol, 303.17 K	0.0105
in isopentanol, 308.13 K	0.0133
in isopentanol, 313.18 K	0.0171
in isopentanol, 318.15 K	0.0216
in isopentanol, 323.24 K	0.0281
in isopropanol, 283.16 K	0.00137
in isopropanol, 288.14 K	0.00173
in isopropanol, 293.15 K	0.0022
in isopropanol, 298.18 K	0.00285
in isopropanol, 303.17 K	0.00362
in isopropanol, 308.13 K	0.00472
in isopropanol, 313.16 K	0.00605
in isopropanol, 318.1 K	0.00802
in isopropanol, 323.14 K	0.0105
in methyl acetate, 283.12 K	0.00263
in methyl acetate, 288.14 K	0.00334
in methyl acetate, 293.15 K	0.00413
in methyl acetate, 298.19 K	0.00509
in methyl acetate, 303.17 K	0.00618
in methyl acetate, 308.14 K	0.0076
in methyl acetate, 313.18 K	0.00926
in methyl acetate, 318.15 K	0.0111
in methyl acetate, 323.13 K	0.013
in n-butanol, 283.15 K	0.00386
in n-butanol, 288.19 K	0.00509
in n-butanol, 293.16 K	0.00645
in n-butanol, 298.14 K	0.00808
in n-butanol, 303.15 K	0.01
in n-butanol, 308.23 K	0.0132
in n-butanol, 313.11 K	0.0163
in n-butanol, 318.18 K	0.0203
in n-butanol, 323.14 K	0.0257
in n-butyl acetate, 283.13 K	0.00191
in n-butyl acetate, 288.16 K	0.00233
in n-butyl acetate, 293.14 K	0.00285
in n-butyl acetate, 298.19 K	0.00345
in n-butyl acetate, 303.15 K	0.00434
in n-butyl acetate, 308.18 K	0.00527
in n-butyl acetate, 313.14 K	0.00676
in n-butyl acetate, 318.13 K	0.00835
in n-butyl acetate, 323.15 K	0.0109
in n-pentanol, 283.1 K	0.00445
in n-pentanol, 288.13 K	0.00581
in n-pentanol, 293.15 K	0.00739
in n-pentanol, 298.19 K	0.00941
in n-pentanol, 303.16 K	0.0117
in n-pentanol, 308.14 K	0.0149
in n-pentanol, 313.17 K	0.0184
in n-pentanol, 318.16 K	0.0234
in n-pentanol, 323.12 K	0.029
in n-propanol, 283.12 K	0.00381
in n-propanol, 288.14 K	0.00458
in n-propanol, 293.15 K	0.00585
in n-propanol, 298.18 K	0.00719
in n-propanol, 303.16 K	0.00909
in n-propanol, 308.21 K	0.0115
in n-propanol, 313.16 K	0.0143
in n-propanol, 318.19 K	0.0172
in n-propanol, 323.17 K	0.0211
in n-propyl acetate, 283.15 K	0.00215
in n-propyl acetate, 288.16 K	0.00261
in n-propyl acetate, 293.09 K	0.00342
in n-propyl acetate, 298.14 K	0.00433
in n-propyl acetate, 303.15 K	0.00541
in n-propyl acetate, 308.17 K	0.00683
in n-propyl acetate, 313.11 K	0.0087
in n-propyl acetate, 318.16 K	0.0106
in n-propyl acetate, 323.1 K	0.0131
in sec-butanol, 283.13 K	0.00212
in sec-butanol, 288.16 K	0.00286
in sec-butanol, 293.14 K	0.0037
in sec-butanol, 298.17 K	0.00503
in sec-butanol, 303.15 K	0.00647
in sec-butanol, 308.12 K	0.00841
in sec-butanol, 313.19 K	0.011
in sec-butanol, 318.16 K	0.0145
in sec-butanol, 323.15 K	0.0183
